# Laboratory results published in patent US20210290648A1, “Potentiation of B-Lactam Antibiotics and B-Lactam/B-Lactamase Inhibitor Combinations Against Multidrug and Extensively Drug-Resistant Pseudomonas Aeruginosa Using Non-Ribosomal Tobramycin-Cyclam Conjugates” (University of Manitoba, priority 2018, published 2021).
# Like-named read-outs stand apart in the source and are kept apart here.
# Assays:
# E. coli ATCC 25922 = experiment: MIC, microbroth dilution; type: cell-based
# Experimental: (§1) Antimicrobial Susceptibility Assay. The in vitro antimicrobial activity of all compounds/antibiotics against a panel of bacteria was evaluated by microbroth dilution method in accordance with the Clinical and Laboratory Standards Institute (CLSI) guidelines. Overnight grown bacterial cultures were diluted in saline to achieve a 0.5 McFarland turbidity, followed by 1:50 dilution in Mueller-Hinton broth (MHB) for inoculation to a final concentration of approximately 5×10^5CFU/mL. The antimicrobial agents were 2-fold serially diluted in MHB in a 96-well plate and incubated at 37° C. with equal volumes of inoculum for 18 h. The lowest concentration that prevented the visible growth of bacteria was defined as the MIC for each antimicrobial agent. The broth with or without bacterial cells was used as positive or negative control, respectively.
# [1] = test system: MRSE CAN-ICU 61589 (CAZ >32); experiment: MIC, microbroth dilution; type: cell-based; settings: standalone
# Experimental: as §1
# MSSE CANWARD-2008 81388 = experiment: MIC, microbroth dilution; type: cell-based; settings: standalone
# Experimental: as §1
# K. pneumoniae ATCC 13883 = experiment: MIC, microbroth dilution; type: cell-based, Klebsiella pneumoniae
# Experimental: as §1
# [2] = test system: human liver carcinoma (HepG2) cells; experiment: Cytotoxicity, PrestoBlue cell viability assay; type: cell-based
# Experimental: Cytotoxicity Assay. Human embryonic kidney cells (HEK293) and HepG2 cells were grown in Dulbecco's modified eagle's medium supplemented with 10% fetal bovine serum in a humidified […] incubator at 37° C. Equal number of cells (100 μl of media containing ˜8000 cells) were dispersed into 96-well plates and wells with medium but no cells were used as blanks. After incubating for 24 h, […] varying concentrations of test compounds (at twice the desired concentrations) were added to each well, including the blanks. The treated cells were then incubated further for 48 h, after which PrestoBlue reagent was added to each well. The plates were then incubated for an additional hour on a nutator mixer in a 5% CO2 incubator. The fluorescence was read at […] on a SpectraMax M2 plate reader (Molecular Devices, USA). Cell viability were interpreted as previously described (55, 77). The values of blank were subtracted from each value, and the viability values of the treated samples relative to the controls with vehicle were calculated. The values for the plots are the means±standard deviation.
# [3] = test system: A. baumannii CAN-ICU 63169; experiment: MIC, microbroth dilution; type: cell-based
# Experimental: as §1
# [4] = test system: E. coli CAN-ICU 61714 (GEN-R); experiment: MIC, microbroth dilution; type: cell-based; settings: standalone
# Experimental: as §1
# [5] = test system: E. coli CAN-ICU 63074 (AMK 32); experiment: MIC, microbroth dilution; type: cell-based; settings: standalone
# Experimental: as §1
# [6] = test system: E. coli CANWARD-2011 97615 (GEN-R, TOB-R, CIP-R) aac(3′)iia; experiment: MIC, microbroth dilution; type: cell-based
# Experimental: as §1
# E. faecalis ATCC 29212 = experiment: MIC, microbroth dilution; type: cell-based
# Experimental: as §1
# E. faecium ATCC 27270 = experiment: MIC, microbroth dilution; type: cell-based
# Experimental: as §1
# MRSA ATCC 33592 = experiment: MIC, microbroth dilution; type: cell-based; settings: standalone
# Experimental: as §1
# S. aureus ATCC 29213 = experiment: MIC, microbroth dilution; type: cell-based
# Experimental: as §1
# [7] = test system: S. maltophilia CAN-ICU 62584; experiment: MIC, microbroth dilution; type: cell-based
# Experimental: as §1
# S. pneumoniae ATCC 49619 = experiment: MIC, microbroth dilution; type: cell-based
# Experimental: as §1
# P. aeruginosa ATCC 27853 = experiment: MIC, microbroth dilution; type: cell-based, Pseudomonas aeruginosa
# Experimental: as §1
# [8] = test system: P. aeruginosa CAN-ICU 62308 (GEN-R); experiment: MIC, microbroth dilution; type: cell-based, Pseudomonas aeruginosa; settings: standalone
# Experimental: as §1
# [9] = test system: P. aeruginosa CANWARD-2011 96846 (GEN-R, TOB-R); experiment: MIC, microbroth dilution; type: cell-based, Pseudomonas aeruginosa; settings: standalone
# Experimental: as §1
# [10] = test system: human embryo kidney (HEK293) cells; experiment: Cytotoxicity, PrestoBlue cell viability assay; type: cell-based; settings: at about 12 μM (6.5 μg/mL), positive control
# Experimental: Cytotoxicity Assay. Human embryonic kidney cells (HEK293) and HepG2 cells were grown in Dulbecco's modified eagle's medium supplemented with 10% fetal bovine serum in a humidified 5% atmospheric incubator at 37° C. […] The fluorescence was read at […] on a SpectraMax M2 plate reader (Molecular Devices, USA). […] The values of blank were subtracted from each value, and the viability values of the treated samples relative to the controls with vehicle were calculated. The values for the plots are the means±standard deviation.
# WT P. aeruginosa PAO1 = experiment: Checkerboard combination study / MIC; type: cell-based, Pseudomonas aeruginosa; settings: for FICI in the presence of ≤10 μM of 1: antibiotic + compound 1; for FICI in the presence of ≤10 μM of 1 / MIC of Antibiotics in the presence of ≤10 μM of 1 / FICI in the presence of ≤10 μM of 2 / MIC of Antibiotics in the presence of ≤10 μM of 2 / FICI in the presence of ≤10 μM of 3 / MIC of Antibiotics in the presence of ≤10 μM of 3 / FICI with compounds 1-3: WT PAO1; for MIC of Antibiotics in the presence of ≤10 μM of 1: antibiotic + compound 1 ≤10 μM; for FICI in the presence of ≤10 μM of 2: antibiotic + compound 2; for MIC of Antibiotics in the presence of ≤10 μM of 2: antibiotic + compound 2 ≤10 μM; for FICI in the presence of ≤10 μM of 3: antibiotic + compound 3; for MIC of Antibiotics in the presence of ≤10 μM of 3: antibiotic + compound 3 ≤10 μM; for FICI with compounds 1-3: antibiotic + compounds 1-3 at ≤10 μM (≤16 μg/mL)
# [11] = test system: MDR/XDR P. aeruginosa clinical isolates; experiment: MIC and checkerboard, panel of clinical isolates; type: cell-based, Pseudomonas aeruginosa
# [12] = test system: panel of Gram-positive and Gram-negative bacteria; experiment: MIC, panel of Gram-positive and Gram-negative bacteria; type: cell-based; settings: standalone; susceptible strains of the panel; read-out: MIC values against susceptible strains
# Experimental: as §1
# PA 91433 = experiment: Checkerboard combination study / MIC; type: cell-based, Pseudomonas aeruginosa; settings: PA91433
# PA 101243 = experiment: Checkerboard combination study / MIC; type: cell-based, Pseudomonas aeruginosa; settings: PA101243
# [13] = test system: Galleria mellonella larvae; experiment: Galleria mellonella tolerability study; settings: 100 mg/kg; positive control
# Experimental: In vitro and in vivo discordances have been observed in antimicrobial chemotherapy, thus, therapeutic efficacy may not necessarily be reliably extrapolated based on in vitro data alone. […] Colistin (100 mg/kg), an antibiotic well known for its toxicity towards eukaryotes, served as a positive control for this experiment while PBS served as negative control. […] Survivability was scored for a total of 4 days.
# In vivo larvae-infection model. In vivo synergistic effects were determined using Galleria mellonella infection model, as previously described (20). Briefly, worms were purchased from The Worm Lady® Live Feeder (ON, Canada), stored in their natural habitat at 16° C., and used within 10 days of delivery. The worms (average weight of 250 mg) were used for tolerability and efficacy studies. Tolerability study was performed by injecting 10 μL of antimicrobial agents only at concentrations equivalent to 100 mg/kg or 200 mg/kg. The worms (ten in each group) were incubated at 37° C. and monitored for 96 h. […] Overnight grown culture of respective MDR P. aeruginosa isolate was standardized to 0.5 McFarland standard and diluted in PBS to a final concentration of […]. 10 μL of this solution (5 CFU) was injected into each worm and incubated for 3 h at 37° C. […] Worms treated with 10 μL PBS or high concentrations of test antibiotics served as negative and positive control, respectively. The worms were incubated at 37° C. in Petri dishes lined with filter paper and scored for survivability every 6 h for up to 48 h. This experiment was repeated to give a total of thirty worms (n=30) in each case. Survival data curves were plotted using Kaplan-Meier survival analysis.
# [14] = Escherichia coli, read-out: MIC
# [15] = Pseudomonas aeruginosa, read-out: MIC
compound,measurement,setting,value
5-O-(Dodecylcyclam)-tobramycin.9HCl [Compound 3],MIC,E. coli ATCC 25922; standalone,64 µg/mL
same,MIC,[1],32 µg/mL
same,MIC,MSSE CANWARD-2008 81388,16 µg/mL
same,MIC,K. pneumoniae ATCC 13883; standalone,64 µg/mL
same,cell viability,"[2]; highest concentration 50 μM, 48 h",about 60%
"NCC1OC(OC2C(N)CC(N)C(OC3OC(CO)C(O)C(N)C3O)C2OCCCCN2CCCNCCNCCCNCC2)C(N)CC1O.O=C(O)C(F)(F)F.O=C(O)C(F)(F)F.O=C(O)C(F)(F)F.O=C(O)C(F)(F)F.O=C(O)C(F)(F)F.O=C(O)C(F)(F)F.O=C(O)C(F)(F)F.O=C(O)C(F)(F)F.O=C(O)C(F)(F)F (stereo not shown) [Compound 1, 5-O-(Butylcyclam)-tobramycin.9TFA]",MIC,[3]; standalone,>128 µg/mL
same,MIC,E. coli ATCC 25922; standalone,64 µg/mL
same,MIC,[4],128 µg/mL
same,MIC,[5],>128 µg/mL
same,MIC,"[6]; standalone, E. coli CANWARD-2011 97615 (GEN-R, TOB-R, CIP-R)",>128 µg/mL
same,MIC,E. faecalis ATCC 29212; standalone,>128 µg/mL
same,MIC,E. faecium ATCC 27270; standalone,>128 µg/mL
same,MIC,MRSA ATCC 33592,64 µg/mL
same,MIC,[1],64 µg/mL
same,MIC,MSSE CANWARD-2008 81388,16 µg/mL
same,MIC,S. aureus ATCC 29213; standalone,64 µg/mL
same,MIC,[7]; standalone,>128 µg/mL
same,MIC,S. pneumoniae ATCC 49619; standalone,>128 µg/mL
same,MIC,P. aeruginosa ATCC 27853; standalone,>128 µg/mL
same,MIC,[8],>128 µg/mL
same,MIC,[9],>128 µg/mL
same,MIC,K. pneumoniae ATCC 13883; standalone,32 µg/mL
COc1cccc2c1C(=O)c1c(O)c3c(c(O)c1C2=O)C[C@@](O)(C(=O)CO)C[C@@H]3O[C@H]1C[C@H](N)[C@H](O)[C@H](C)O1 [Doxorubicin],cell viability,"[2]; at about 12 μM (6.5 μg/mL), positive control",less than 10%
same,cytotoxicity of cells reduced to,[10],less than 10%
NC[C@H]1O[C@H](O[C@H]2[C@H](O)[C@@H](O[C@H]3O[C@H](CO)[C@@H](O)[C@H](N)[C@H]3O)[C@H](N)C[C@@H]2N)[C@H](N)C[C@@H]1O [Tobramycin],MIC,"[3]; Acinetobacter baumannii, CANICU63169, standalone, read-out: MIC",32 µg/mL
same,MIC,"E. coli ATCC 25922; Escherichia coli, ATCC25922, standalone, read-out: MIC",0.5 µg/mL
same,MIC,[4]; [14],8 µg/mL
same,MIC,[5]; [14],8 µg/mL
same,MIC,[6]; Escherichia coli,128 µg/mL
same,MIC,"E. faecalis ATCC 29212; Enterococcus faecalis, ATCC29212, standalone, read-out: MIC",8 µg/mL
same,MIC,"E. faecium ATCC 27270; Enterococcus faecium, ATCC27270, standalone, read-out: MIC",16 µg/mL
same,MIC,"MRSA ATCC 33592; Staphylococcus aureus, read-out: MIC",0.5 µg/mL
same,MIC,"[1]; Staphylococcus epidermidis, read-out: MIC",2 µg/mL
same,MIC,MSSE CANWARD-2008 81388; read-out: MIC,≤ 0.25 µg/mL
same,MIC,"S. aureus ATCC 29213; Staphylococcus aureus, ATCC29213, standalone, read-out: MIC",0.5 µg/mL
same,MIC,"[7]; Stenotrophomonas maltophilia, CANICU62584, standalone, read-out: MIC",> 512 µg/mL
same,MIC,"S. pneumoniae ATCC 49619; Streptococcus pneumoniae, ATCC49619, standalone, read-out: MIC",2 µg/mL
same,MIC,"P. aeruginosa ATCC 27853; Pseudomonas aeruginosa, ATCC27853, standalone, read-out: MIC",1 µg/mL
same,MIC,[8]; [15],16 µg/mL
same,MIC,[9]; [15],256 µg/mL
same,MIC,"K. pneumoniae ATCC 13883; Klebsiella pneumoniae, ATCC13883, standalone, read-out: MIC",≤ 0.25 µg/mL
same,MIC,"WT P. aeruginosa PAO1; Pseudomonas aeruginosa, PAO1, 18 h, antibiotic alone, WT PAO1 (Table 2), read-out: MIC alone",1 µg/mL
same,FICI in the presence of ≤10 μM of 1,WT P. aeruginosa PAO1,1.01
same,MIC of Antibiotics in the presence of ≤10 μM of 1,WT P. aeruginosa PAO1,1 µg/mL
same,FICI in the presence of ≤10 μM of 2,WT P. aeruginosa PAO1,1.00
same,MIC of Antibiotics in the presence of ≤10 μM of 2,WT P. aeruginosa PAO1,1 µg/mL
same,FICI in the presence of ≤10 μM of 3,WT P. aeruginosa PAO1,1.01
same,MIC of Antibiotics in the presence of ≤10 μM of 3,WT P. aeruginosa PAO1,1 µg/mL
same,FICI with compounds 1-3,WT P. aeruginosa PAO1,1
same,FICI with aztreonam or meropenem,"WT P. aeruginosa PAO1; tobramycin + aztreonam or meropenem, WT",0.75-1.00
same,FICI with aztreonam or meropenem,[11]; tobramycin-resistant MDR/XDR isolates,0.56-0.75
same,FICI with aztreonam or meropenem,[11]; tobramycin-susceptible MDR,0.75
same,MIC,[12],≤ 2 µg/mL
Colistin,FICI in the presence of ≤10 μM of 1,WT P. aeruginosa PAO1,2.00
same,MIC of Antibiotics in the presence of ≤10 μM of 1,WT P. aeruginosa PAO1,2 µg/mL
same,FICI in the presence of ≤10 μM of 2,WT P. aeruginosa PAO1,2.00
same,MIC of Antibiotics in the presence of ≤10 μM of 2,WT P. aeruginosa PAO1,2 µg/mL
same,FICI in the presence of ≤10 μM of 3,WT P. aeruginosa PAO1,1.02
same,MIC of Antibiotics in the presence of ≤10 μM of 3,WT P. aeruginosa PAO1,1 µg/mL
same,FICI with compounds 1-3,WT P. aeruginosa PAO1,2
same,MIC alone,"WT P. aeruginosa PAO1; antibiotic alone, WT PAO1 (Table 2)",Colistin (1) μg/ml
same,MIC of colistin,PA 91433,4 µg/mL
same,MIC of colistin,PA 101243,1024 µg/mL
same,survival of larvae,[13],30%
